Assays:
Assay type in all cases: in vivo
[1] = system: ivyleaf morningglory (Ipomoea hederacea, IPOHE); assay: Pre-emerge test, greenhouse herbicide activity screening; details: pre-emerge, 14 days after application
How it was run: (§1)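 Compounds in acetone were track-sprayed at 15–1000 g ai/ha: pre-emergence onto soil sown the previous day, then top-watered to incorporate and later bottom-watered; post-emergence onto 2–3 leaf plants with 0.25% v/v surfactant, bottom-watered only. Ratings on a 0–100 phytotoxicity scale were taken at day 14.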

[2] = system: barnyardgrass (Echinochloa crus-galli, ECHCG); assay: as above; details: pre-emerge, 14 days after application
How it was run: as §1

[3] = system: johnsongrass (Sorghum halepense, SORHA); assay: as above; details: pre-emerge, 14 days after application
How it was run: as §1

[4] = system: lambsquarters (Chenopodium album, CHEAL); assay: as above; details: pre-emerge, 14 days after application
How it was run: as §1

[5] = system: velvetleaf (Abutilon theophrasti, ABUTH); assay: as above; details: pre-emerge, 14 days after application
How it was run: as §1

[6] = system: sicklepod (Cassia obtusifolia, CASOB); assay: as above; details: pre-emerge, 14 days after application
How it was run: as §1

[7] = system: green foxtail (Setaria viridis, SETVI); assay: as above; details: pre-emerge, 14 days after application
How it was run: as §1

[8] = system: large crabgrass (Digitaria sanguinalis, DIGSA); assay: as above; details: pre-emerge, 14 days after application
How it was run: as §1

[9] = system: ivyleaf morningglory (Ipomoea hederacea, IPOHE); assay: Post-emerge test, greenhouse herbicide activity screening; details: post-emerge, 14 days after application, rating scale 0-100
How it was run: (§2)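 Plants grown in 10 cm pots of sandy loam mix received acetone-dissolved compounds through a moving flat-fan nozzle. Doses ranged from 15 to 1000 g ai/ha. Pre-emerge pots were seeded one day earlier, post-emerge pots 8–21 days earlier. Fourteen days on, each pot was graded 0–100 for damage.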

[10] = system: barnyardgrass (Echinochloa crus-galli, ECHCG); assay: as above; details: post-emerge, 14 days after application, rating scale 0-100
How it was run: as §2

[11] = system: johnsongrass (Sorghum halepense, SORHA); assay: as above; details: post-emerge, 14 days after application, rating scale 0-100
How it was run: as §2

[12] = system: velvetleaf (Abutilon theophrasti, ABUTH); assay: as above; details: post-emerge, 14 days after application, rating scale 0-100
How it was run: as §2

[13] = system: sicklepod (Cassia obtusifolia, CASOB); assay: as above; details: post-emerge, 14 days after application, rating scale 0-100
How it was run: as §2

[14] = system: redroot pigweed (Amaranthus retroflexus, AMARE); assay: as above; details: post-emerge, 14 days after application
How it was run: as §2

[15] = system: green foxtail (Setaria viridis, SETVI); assay: as above; details: post-emerge, 14 days after application, rating scale 0-100
How it was run: as §2

[16] = system: large crabgrass (Digitaria sanguinalis, DIGSA); assay: as above; details: post-emerge, 14 days after application, rating scale 0-100
How it was run: as §2

[17] = system: redroot pigweed (Amaranthus retroflexus, AMARE); assay: Pre-emerge test, greenhouse herbicide activity screening; details: pre-emerge, 14 days after application
How it was run: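 Compounds in acetone were track-sprayed at 15-1000 g ai/ha (187 l/ha) on sandy loam pots: pre-emerge one day after seeding, post-emerge at 2-3 leaf stage with 0.25% v/v non-ionic surfactant. Phytotoxicity was rated 14 days later on a 0 (no damage) to 100 (complete death) scale.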

[18] = system: lambsquarters (Chenopodium album, CHEAL); assay: Post-emerge test, greenhouse herbicide activity screening; details: post-emerge, 14 days after application, rating scale 0-100
How it was run: as §2

[19] = 250 g ai/ha, rating scale 0-100

SMILES: Cn1c(C(F)(F)F)cc(=O)n(-c2c(F)cc(Cl)cc2NC(=O)c2ccc3ccccc3c2)c1=O [Compound 2-145, 3-[4-chloro-6-fluoro-2-(2-naphthoylamino)phenyl]-1-methyl-6-trifluoromethyl-2,4(1H, 3H)-pyrimidinedione]
- phytotoxicity rating IPOHE ([1]; 63 g ai/ha, scale 0-100): 10
- phytotoxicity rating IPOHE ([1]; 250 g ai/ha, scale 0-100): 100
- phytotoxicity rating ECHCG ([2]; 63 g ai/ha, scale 0-100): 35
- phytotoxicity rating ECHCG ([2]; 250 g ai/ha, scale 0-100): 60
- phytotoxicity rating SORHA ([3]; 63 g ai/ha, scale 0-100): 30
- phytotoxicity rating SORHA ([3]; 250 g ai/ha, scale 0-100): 50
- phytotoxicity rating CHEAL ([4]; 63 g ai/ha, scale 0-100): 100
- phytotoxicity rating CHEAL ([4]; 250 g ai/ha, scale 0-100): 100
- phytotoxicity rating ABUTH ([5]; 63 g ai/ha, scale 0-100): 90
- phytotoxicity rating ABUTH ([5]; 250 g ai/ha, scale 0-100): 100
- phytotoxicity rating CASOB ([6]; 63 g ai/ha, scale 0-100): 40
- phytotoxicity rating CASOB ([6]; 250 g ai/ha, scale 0-100): 90
- phytotoxicity rating SETVI ([7]; 63 g ai/ha, scale 0-100): 60
- phytotoxicity rating SETVI ([7]; 250 g ai/ha, scale 0-100): 100
- phytotoxicity rating DIGSA ([8]; 63 g ai/ha, scale 0-100): 90
- phytotoxicity rating DIGSA ([8]; 250 g ai/ha, scale 0-100): 100
- IPOHE phytotoxicity rating ([9]; 63 g ai/ha): 100
- IPOHE phytotoxicity rating ([9]; 250 g ai/ha): 100
- ECHCG phytotoxicity rating ([10]; 63 g ai/ha): 0
- ECHCG phytotoxicity rating ([10]; 250 g ai/ha): 20
- SORHA phytotoxicity rating ([11]; 63 g ai/ha): 0
- SORHA phytotoxicity rating ([11]; 250 g ai/ha): 10
- ABUTH phytotoxicity rating ([12]; 63 g ai/ha): 100
- ABUTH phytotoxicity rating ([12]; 250 g ai/ha): 100
- CASOB phytotoxicity rating ([13]; 63 g ai/ha): 100
- CASOB phytotoxicity rating ([13]; 250 g ai/ha): 100
- AMARE phytotoxicity rating ([14]; 63 g ai/ha, rating scale 0-100): 95
- AMARE phytotoxicity rating [14, 19]: 100
- SETVI phytotoxicity rating ([15]; 63 g ai/ha): 0
- SETVI phytotoxicity rating ([15]; 250 g ai/ha): 40
- DIGSA phytotoxicity rating ([16]; 63 g ai/ha): 0
- DIGSA phytotoxicity rating ([16]; 250 g ai/ha): 10
- phytotoxicity rating AMARE ([17]; 63 g ai/ha, scale 0-100): 100
- phytotoxicity rating AMARE ([17]; 250 g ai/ha, scale 0-100): 100

SMILES: COc1c(Cl)cc(F)c(-n2c(=O)cc(C(F)(F)F)n(C)c2=O)c1OC(=O)c1ccc2ccccc2c1 [Compound 16-7, 3-[4-chloro-6fluoro-3-methoxy-2-(2-naphthoyloxy)phenyl]-1-methyl-6-trifluoromethyl-2,4(1H, 3H)-pyrimidinedione]
- phytotoxicity rating IPOHE ([1]; 63 g ai/ha, rating scale 0-100): 0
- phytotoxicity rating IPOHE [1, 19]: 0
- phytotoxicity rating ECHCG ([2]; 63 g ai/ha, rating scale 0-100): 0
- phytotoxicity rating ECHCG [2, 19]: 0
- phytotoxicity rating SORHA ([3]; 63 g ai/ha, rating scale 0-100): 0
- phytotoxicity rating SORHA [3, 19]: 0
- phytotoxicity rating CHEAL ([4]; 63 g ai/ha, rating scale 0-100): 0
- phytotoxicity rating CHEAL [4, 19]: 0
- phytotoxicity rating ABUTH ([5]; 63 g ai/ha, rating scale 0-100): 0
- phytotoxicity rating ABUTH [5, 19]: 0
- phytotoxicity rating CASOB ([6]; 63 g ai/ha, rating scale 0-100): 0
- phytotoxicity rating CASOB [6, 19]: 0
- phytotoxicity rating SETVI ([7]; 63 g ai/ha, rating scale 0-100): 0
- phytotoxicity rating SETVI [7, 19]: 0
- phytotoxicity rating DIGSA ([8]; 63 g ai/ha, rating scale 0-100): 0
- phytotoxicity rating DIGSA [8, 19]: 0
- Post-emerge Herbicidal Activity IPOHE (phytotoxicity rating) ([9]; 63 g ai/ha): 0
- Post-emerge Herbicidal Activity IPOHE (phytotoxicity rating) ([9]; 250 g ai/ha): 30
- Post-emerge Herbicidal Activity ECHCG (phytotoxicity rating) ([10]; 63 g ai/ha): 0
- Post-emerge Herbicidal Activity ECHCG (phytotoxicity rating) ([10]; 250 g ai/ha): 0
- Post-emerge Herbicidal Activity SORHA (phytotoxicity rating) ([11]; 63 g ai/ha): 0
- Post-emerge Herbicidal Activity SORHA (phytotoxicity rating) ([11]; 250 g ai/ha): 0
- Post-emerge Herbicidal Activity CHEAL (phytotoxicity rating) ([18]; 63 g ai/ha): 0
- Post-emerge Herbicidal Activity CHEAL (phytotoxicity rating) ([18]; 250 g ai/ha): 0
- Post-emerge Herbicidal Activity ABUTH (phytotoxicity rating) ([12]; 63 g ai/ha): 0
- Post-emerge Herbicidal Activity ABUTH (phytotoxicity rating) ([12]; 250 g ai/ha): 0
- Post-emerge Herbicidal Activity CASOB (phytotoxicity rating) ([13]; 63 g ai/ha): 0
- Post-emerge Herbicidal Activity CASOB (phytotoxicity rating) ([13]; 250 g ai/ha): 30
- Post-emerge Herbicidal Activity AMARE (phytotoxicity rating) ([14]; 63 g ai/ha, rating scale 0-100 (0 no damage, 100 complete death)): 0
- Post-emerge Herbicidal Activity AMARE (phytotoxicity rating) [14, 19]: 0
- Post-emerge Herbicidal Activity SETVI (phytotoxicity rating) ([15]; 63 g ai/ha): 0
- Post-emerge Herbicidal Activity SETVI (phytotoxicity rating) ([15]; 250 g ai/ha): 0
- Post-emerge Herbicidal Activity DIGSA (phytotoxicity rating) ([16]; 63 g ai/ha): 0
- Post-emerge Herbicidal Activity DIGSA (phytotoxicity rating) ([16]; 250 g ai/ha): 0
- phytotoxicity rating AMARE ([17]; 63 g ai/ha, rating scale 0-100): 0
- phytotoxicity rating AMARE [17, 19]: 50
